# Laboratory results: the NIST ThermoML archive (doi:10.1016/j.jct.2018.01.003)
# Numbers after ± are expanded uncertainties.
# Test: activity coefficient (dimensionless); of the first substance listed, at infinite dilution; xn = mol fraction of the nth substance listed
# Conditions: 101.33 kPa, Liquid, Chromatography, x1 = 0
smiles,measurement,setting,value
CCCC=O [butanal] + CCCCCCCCCCCCCC[P+](CCCCCC)(CCCCCC)CCCCCC.N#CC(=C=[N-])C#N,activity coefficient,328.15 K,0.46 ± 0.036
same,activity coefficient,338.15 K,0.477 ± 0.037
same,activity coefficient,348.15 K,0.494 ± 0.038
same,activity coefficient,358.15 K,0.513 ± 0.038
same,activity coefficient,368.15 K,0.533 ± 0.039
C1CCCCCC1 [cycloheptane] + CCCCCCCCCCCCCC[P+](CCCCCC)(CCCCCC)CCCCCC.N#CC(=C=[N-])C#N,activity coefficient,328.15 K,1.21 ± 0.08
same,activity coefficient,338.15 K,1.22 ± 0.08
same,activity coefficient,348.15 K,1.23 ± 0.08
same,activity coefficient,358.15 K,1.25 ± 0.08
same,activity coefficient,368.15 K,1.26 ± 0.08
C1CCCCC1 [cyclohexane] + CCCCCCCCCCCCCC[P+](CCCCCC)(CCCCCC)CCCCCC.N#CC(=C=[N-])C#N,activity coefficient,328.15 K,1.14 ± 0.07
same,activity coefficient,338.15 K,1.15 ± 0.07
same,activity coefficient,348.15 K,1.16 ± 0.07
same,activity coefficient,358.15 K,1.17 ± 0.07
same,activity coefficient,368.15 K,1.18 ± 0.08
C1=CCCCC1 [cyclohexene] + CCCCCCCCCCCCCC[P+](CCCCCC)(CCCCCC)CCCCCC.N#CC(=C=[N-])C#N,activity coefficient,328.15 K,0.906 ± 0.057
same,activity coefficient,338.15 K,0.922 ± 0.058
same,activity coefficient,348.15 K,0.938 ± 0.059
same,activity coefficient,358.15 K,0.958 ± 0.06
same,activity coefficient,368.15 K,0.973 ± 0.061
C1CCCCCCC1 [cyclooctane] + CCCCCCCCCCCCCC[P+](CCCCCC)(CCCCCC)CCCCCC.N#CC(=C=[N-])C#N,activity coefficient,328.15 K,1.32 ± 0.09
same,activity coefficient,338.15 K,1.33 ± 0.09
same,activity coefficient,348.15 K,1.35 ± 0.09
same,activity coefficient,358.15 K,1.36 ± 0.09
same,activity coefficient,368.15 K,1.37 ± 0.09
C1CCCC1 [cyclopentane] + CCCCCCCCCCCCCC[P+](CCCCCC)(CCCCCC)CCCCCC.N#CC(=C=[N-])C#N,activity coefficient,328.15 K,0.99 ± 0.062
same,activity coefficient,338.15 K,1 ± 0.06
same,activity coefficient,348.15 K,1.01 ± 0.06
same,activity coefficient,358.15 K,1.03 ± 0.06
same,activity coefficient,368.15 K,1.04 ± 0.07
CCCCCCCCCC [decane] + CCCCCCCCCCCCCC[P+](CCCCCC)(CCCCCC)CCCCCC.N#CC(=C=[N-])C#N,activity coefficient,328.15 K,3.09 ± 0.21
same,activity coefficient,338.15 K,3.1 ± 0.21
same,activity coefficient,348.15 K,3.1 ± 0.21
same,activity coefficient,358.15 K,3.1 ± 0.21
same,activity coefficient,368.15 K,3.1 ± 0.21
CCOCC [diethyl ether] + CCCCCCCCCCCCCC[P+](CCCCCC)(CCCCCC)CCCCCC.N#CC(=C=[N-])C#N,activity coefficient,328.15 K,0.943 ± 0.059
same,activity coefficient,338.15 K,0.981 ± 0.062
same,activity coefficient,348.15 K,1.01 ± 0.06
same,activity coefficient,358.15 K,1.05 ± 0.07
same,activity coefficient,368.15 K,1.08 ± 0.07
CC(C)OC(C)C [diisopropyl ether] + CCCCCCCCCCCCCC[P+](CCCCCC)(CCCCCC)CCCCCC.N#CC(=C=[N-])C#N,activity coefficient,328.15 K,1.5 ± 0.1
same,activity coefficient,338.15 K,1.54 ± 0.1
same,activity coefficient,348.15 K,1.58 ± 0.1
same,activity coefficient,358.15 K,1.62 ± 0.11
same,activity coefficient,368.15 K,1.66 ± 0.11
CCCOCCC [dipropyl ether] + CCCCCCCCCCCCCC[P+](CCCCCC)(CCCCCC)CCCCCC.N#CC(=C=[N-])C#N,activity coefficient,328.15 K,1.3 ± 0.08
same,activity coefficient,338.15 K,1.35 ± 0.09
same,activity coefficient,348.15 K,1.39 ± 0.09
same,activity coefficient,358.15 K,1.43 ± 0.09
same,activity coefficient,368.15 K,1.47 ± 0.1
CCO [ethanol] + CCCCCCCCCCCCCC[P+](CCCCCC)(CCCCCC)CCCCCC.N#CC(=C=[N-])C#N,activity coefficient,328.15 K,0.462 ± 0.036
same,activity coefficient,338.15 K,0.471 ± 0.037
same,activity coefficient,348.15 K,0.477 ± 0.037
same,activity coefficient,358.15 K,0.485 ± 0.037
same,activity coefficient,368.15 K,0.49 ± 0.037
CCOC(C)=O [ethyl acetate] + CCCCCCCCCCCCCC[P+](CCCCCC)(CCCCCC)CCCCCC.N#CC(=C=[N-])C#N,activity coefficient,328.15 K,0.653 ± 0.045
same,activity coefficient,338.15 K,0.678 ± 0.046
same,activity coefficient,348.15 K,0.699 ± 0.047
same,activity coefficient,358.15 K,0.724 ± 0.048
same,activity coefficient,368.15 K,0.746 ± 0.049
CCc1ccccc1 [ethylbenzene] + CCCCCCCCCCCCCC[P+](CCCCCC)(CCCCCC)CCCCCC.N#CC(=C=[N-])C#N,activity coefficient,328.15 K,0.701 ± 0.047
same,activity coefficient,338.15 K,0.729 ± 0.048
same,activity coefficient,348.15 K,0.756 ± 0.05
same,activity coefficient,358.15 K,0.783 ± 0.051
same,activity coefficient,368.15 K,0.805 ± 0.052
CCCCCCC [heptane] + CCCCCCCCCCCCCC[P+](CCCCCC)(CCCCCC)CCCCCC.N#CC(=C=[N-])C#N,activity coefficient,328.15 K,2.04 ± 0.14
same,activity coefficient,338.15 K,2.06 ± 0.14
same,activity coefficient,348.15 K,2.08 ± 0.14
same,activity coefficient,358.15 K,2.1 ± 0.14
same,activity coefficient,368.15 K,2.12 ± 0.14
C=CCCCC [hex-1-ene] + CCCCCCCCCCCCCC[P+](CCCCCC)(CCCCCC)CCCCCC.N#CC(=C=[N-])C#N,activity coefficient,328.15 K,1.39 ± 0.09
same,activity coefficient,338.15 K,1.42 ± 0.09
same,activity coefficient,348.15 K,1.43 ± 0.09
same,activity coefficient,358.15 K,1.46 ± 0.1
same,activity coefficient,368.15 K,1.48 ± 0.1
CCCCCC [hexane] + CCCCCCCCCCCCCC[P+](CCCCCC)(CCCCCC)CCCCCC.N#CC(=C=[N-])C#N,activity coefficient,328.15 K,1.77 ± 0.12
same,activity coefficient,338.15 K,1.81 ± 0.12
same,activity coefficient,348.15 K,1.83 ± 0.12
same,activity coefficient,358.15 K,1.86 ± 0.13
same,activity coefficient,368.15 K,1.88 ± 0.13
CO [methanol] + CCCCCCCCCCCCCC[P+](CCCCCC)(CCCCCC)CCCCCC.N#CC(=C=[N-])C#N,activity coefficient,328.15 K,0.39 ± 0.034
same,activity coefficient,338.15 K,0.399 ± 0.034
same,activity coefficient,348.15 K,0.408 ± 0.034
same,activity coefficient,358.15 K,0.417 ± 0.035
same,activity coefficient,368.15 K,0.424 ± 0.035
CCCC(=O)OC [methyl butanoate] + CCCCCCCCCCCCCC[P+](CCCCCC)(CCCCCC)CCCCCC.N#CC(=C=[N-])C#N,activity coefficient,328.15 K,0.652 ± 0.045
same,activity coefficient,338.15 K,0.683 ± 0.046
same,activity coefficient,348.15 K,0.709 ± 0.047
same,activity coefficient,358.15 K,0.739 ± 0.049
same,activity coefficient,368.15 K,0.764 ± 0.05
COC(C)=O [methyl ethanoate] + CCCCCCCCCCCCCC[P+](CCCCCC)(CCCCCC)CCCCCC.N#CC(=C=[N-])C#N,activity coefficient,328.15 K,0.65 ± 0.044
same,activity coefficient,338.15 K,0.669 ± 0.045
same,activity coefficient,348.15 K,0.685 ± 0.046
same,activity coefficient,358.15 K,0.704 ± 0.047
same,activity coefficient,368.15 K,0.721 ± 0.048
CCC(=O)OC [methyl propanoate] + CCCCCCCCCCCCCC[P+](CCCCCC)(CCCCCC)CCCCCC.N#CC(=C=[N-])C#N,activity coefficient,328.15 K,0.616 ± 0.043
same,activity coefficient,338.15 K,0.641 ± 0.044
same,activity coefficient,348.15 K,0.663 ± 0.045
same,activity coefficient,358.15 K,0.688 ± 0.046
same,activity coefficient,368.15 K,0.711 ± 0.047
CC1CCCCC1 [methylcyclohexane] + CCCCCCCCCCCCCC[P+](CCCCCC)(CCCCCC)CCCCCC.N#CC(=C=[N-])C#N,activity coefficient,328.15 K,1.32 ± 0.09
same,activity coefficient,338.15 K,1.33 ± 0.09
same,activity coefficient,348.15 K,1.35 ± 0.09
same,activity coefficient,358.15 K,1.36 ± 0.09
same,activity coefficient,368.15 K,1.38 ± 0.09
CCCCCCCCC [nonane] + CCCCCCCCCCCCCC[P+](CCCCCC)(CCCCCC)CCCCCC.N#CC(=C=[N-])C#N,activity coefficient,328.15 K,2.66 ± 0.18
same,activity coefficient,338.15 K,2.67 ± 0.18
same,activity coefficient,348.15 K,2.69 ± 0.18
same,activity coefficient,358.15 K,2.7 ± 0.18
same,activity coefficient,368.15 K,2.71 ± 0.18
C=CCCCCCC [oct-1-ene] + CCCCCCCCCCCCCC[P+](CCCCCC)(CCCCCC)CCCCCC.N#CC(=C=[N-])C#N,activity coefficient,328.15 K,1.81 ± 0.12
same,activity coefficient,338.15 K,1.85 ± 0.12
same,activity coefficient,348.15 K,1.88 ± 0.13
same,activity coefficient,358.15 K,1.91 ± 0.13
same,activity coefficient,368.15 K,1.94 ± 0.13
CCCCCCCC [octane] + CCCCCCCCCCCCCC[P+](CCCCCC)(CCCCCC)CCCCCC.N#CC(=C=[N-])C#N,activity coefficient,328.15 K,2.35 ± 0.16
same,activity coefficient,338.15 K,2.36 ± 0.16
same,activity coefficient,348.15 K,2.37 ± 0.16
same,activity coefficient,358.15 K,2.38 ± 0.16
same,activity coefficient,368.15 K,2.39 ± 0.16
CCCC(C)=O [pentan-2-one] + CCCCCCCCCCCCCC[P+](CCCCCC)(CCCCCC)CCCCCC.N#CC(=C=[N-])C#N,activity coefficient,338.15 K,0.459 ± 0.036
same,activity coefficient,348.15 K,0.477 ± 0.037
same,activity coefficient,358.15 K,0.502 ± 0.038
same,activity coefficient,368.15 K,0.52 ± 0.039
CCC(=O)CC [pentan-3-one] + CCCCCCCCCCCCCC[P+](CCCCCC)(CCCCCC)CCCCCC.N#CC(=C=[N-])C#N,activity coefficient,338.15 K,0.451 ± 0.036
same,activity coefficient,348.15 K,0.47 ± 0.037
same,activity coefficient,358.15 K,0.494 ± 0.038
same,activity coefficient,368.15 K,0.514 ± 0.038
